Measurements: PubChem BioAssay AID248 (DTP/NCI, 2004)
Where “and” joins values, the source holds several entries; their conditions need not be identical. Equal entries are not always repeated. Toxic doses and inconclusive results are not listed. Cut-off read from the data, not from the text of the source: active = T/C of 150% or more; inactive = T/C below 125%.

System: L1210 leukemia ip in BDF1 mice, survival T/C
Test: NCI In Vivo Anticancer Drug Screen. Data for tumor model L1210 Leukemia (intraperitoneal) in B6D2F1 (BDF1) mice
Conditions: endpoint: mean survival time, higher = longer survival
How it was run: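 Ratio derived from survival: compound-dosed mice over vehicle-dosed mice, all bearing a transplantable tumor.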

[1] = dose: 100.0 mg/kg/injection, schedule: Q01DX009 (ip), vehicle: saline
[2] = dose: 100.0 mg/kg/injection, schedule: Q01DX009 (ip), vehicle: Klucel (hydroxypropylcellulose) (HPC)
[3] = dose: 200.0 mg/kg/injection, schedule: Q01DX009 (ip), vehicle: Klucel (hydroxypropylcellulose) (HPC)
[4] = dose: 400.0 mg/kg/injection, schedule: Q01DX009 (ip), vehicle: Klucel (hydroxypropylcellulose) (HPC)
[5] = dose: 100.0 mg/kg/injection, schedule: Q04DX003 (ip), vehicle: Klucel (hydroxypropylcellulose) (HPC)
[6] = dose: 200.0 mg/kg/injection, schedule: Q04DX003 (ip), vehicle: Klucel (hydroxypropylcellulose) (HPC)
[7] = dose: 400.0 mg/kg/injection, schedule: Q04DX003 (ip), vehicle: Klucel (hydroxypropylcellulose) (HPC)
[8] = dose: 50.0 mg/kg/injection, schedule: Q01DX009 (ip), vehicle: other
[9] = dose: 100.0 mg/kg/injection, schedule: Q01DX001 (ip), vehicle: saline
[10] = dose: 100.0 mg/kg/injection, schedule: Q01DX009 (ip), vehicle: other
[11] = dose: 50.0 mg/kg/injection, schedule: Q01DX001 (ip), vehicle: saline
[12] = dose: 200.0 mg/kg/injection, schedule: Q01DX001 (ip), vehicle: saline
[13] = dose: 400.0 mg/kg/injection, schedule: Q01DX001 (ip), vehicle: saline
[14] = dose: 100.0 mg/kg/injection, schedule: Q01DX001 (ip), vehicle: Klucel (hydroxypropylcellulose) (HPC)

Measured: T/C

N/C(=N/N=C/c1ccccc1)N/N=C\c1ccccc1
inactive: dose: 15.0 mg/kg/injection, schedule: Q01DX Z (oral), vehicle: saline 95 % of control | dose: 30.0 mg/kg/injection, schedule: Q01DX Z (oral), vehicle: saline 95 % of control | dose: 60.0 mg/kg/injection, schedule: Q01DX Z (oral), vehicle: saline 91 % of control | dose: 120.0 mg/kg/injection, schedule: Q01DX Z (oral), vehicle: saline 95 % of control

CC1(C)N=C(N)N=C(N)N1c1ccc(CCCC(=O)Nc2ccc(S(=O)(=O)F)cc2)cc1
inactive: dose: 0.8 mg/kg/injection, schedule: Q01DX009 (ip), vehicle: saline 97 % of control | dose: 4.0 mg/kg/injection, schedule: Q01DX009 (ip), vehicle: saline 98 % of control | dose: 20.0 mg/kg/injection, schedule: Q01DX009 (ip), vehicle: saline 104 % of control | [1] 114 % of control | dose: 500.0 mg/kg/injection, schedule: Q01DX009 (ip), vehicle: saline 123 % of control

COc1ccc([N+](=O)[O-])cc1NC(=O)N/N=C(\C)C(C)(C)C
inactive: [2] 94 % of control | [3] 102 % of control | [4] 86 % of control

CCOC(=O)c1scnc1C
inactive: [2] 89 % of control | [5] 95 % of control | [3] 95 % of control | [6] 95 % of control | [4] 92 % of control | [7] 95 % of control

O=C(Nc1cc(C(F)(F)F)ccc1Cl)SCCSC(=O)Nc1cc(C(F)(F)F)ccc1Cl
inactive: [2] 87 % of control | [5] 102 % of control | [3] 103 % of control | [6] 100 % of control | [4] 93 % of control | [7] 97 % of control

CCCCN(CCCC)CC(O)c1ccnc2cc3c(cc12)OCO3 (centres undefined)
inactive: dose: 25.0 mg/kg/injection, schedule: Q01DX009 (ip), vehicle: other 102 % of control | [8] 110 % of control | [9] 97 % of control | [10] 111 % of control

O=C1CSC(c2ccccc2)N1c1ccccc1 (centres undefined)
inactive: [11] 106 % of control | [9] 118 % of control | [12] 108 % of control | [13] 100 % of control

CCOC(=O)C(C(=O)OCC)c1ccc(Cl)cc1
inactive: [11] 101 % of control | [9] 101 % of control | [12] 101 % of control | [13] 106 % of control

N#CC(Cc1ccccc1Cl)(Cc1ccccc1Cl)c1ccccc1
inactive: [2] 110 % of control | [5] 108 % of control | [3] 105 % of control | [6] 94 % of control | [4] 105 % of control | [7] 108 % of control

Nc1ccc(S(=O)(=O)Nc2ccc([N+](=O)[O-])cc2)cc1
inactive: dose: 25.0 mg/kg/injection, schedule: Q01DX009 (ip), vehicle: saline with Tween-80 98 % of control | dose: 50.0 mg/kg/injection, schedule: Q01DX009 (ip), vehicle: saline with Tween-80 93 % of control | dose: 100.0 mg/kg/injection, schedule: Q01DX009 (ip), vehicle: saline with Tween-80 98 % of control | dose: 200.0 mg/kg/injection, schedule: Q01DX009 (ip), vehicle: saline with Tween-80 110 % of control | dose: 400.0 mg/kg/injection, schedule: Q01DX009 (ip), vehicle: saline with Tween-80 100 % of control

COC(=O)C(c1ccccc1)C1(O)CCN(CC2COc3ccccc3O2)CC1 (centres undefined)
inactive: dose: 25.0 mg/kg/injection, schedule: Q01DX001 (ip), vehicle: Klucel (hydroxypropylcellulose) (HPC) 96 % of control | dose: 50.0 mg/kg/injection, schedule: Q01DX001 (ip), vehicle: Klucel (hydroxypropylcellulose) (HPC) 93 % of control | [14] 97 % of control and 102 % of control

COc1cccc2c1OC1(N3CCOCC3)CCCCC1C2C[N+](=O)[O-] (centres undefined)
inactive: [2] 97 % of control | [3] 105 % of control | [4] 94 % of control

CC(C)OC(=O)c1cc(O)c(O)c(O)c1
inactive: dose: 75.0 mg/kg/injection, schedule: Q01DX001 (ip), vehicle: saline 102 % of control | dose: 150.0 mg/kg/injection, schedule: Q01DX001 (ip), vehicle: saline 94 % of control | dose: 300.0 mg/kg/injection, schedule: Q01DX001 (ip), vehicle: saline 94 % of control

CN(CSc1c(Cl)c(Cl)c(Cl)c(Cl)c1Cl)c1ccccc1
inactive: dose: 100.0 mg/kg/injection, schedule: Q04DX002 (ip), vehicle: Klucel (hydroxypropylcellulose) (HPC) 103 % of control | dose: 200.0 mg/kg/injection, schedule: Q04DX002 (ip), vehicle: Klucel (hydroxypropylcellulose) (HPC) 98 % of control | dose: 400.0 mg/kg/injection, schedule: Q04DX002 (ip), vehicle: Klucel (hydroxypropylcellulose) (HPC) 93 % of control

CN(C)c1ccc(CNc2ccc(Cl)cc2)cc1
inactive: [5] 91 % of control | [6] 89 % of control | [7] 93 % of control

CC(C)CNCc1cc(Nc2ccnc3cc(Cl)ccc23)ccc1O
inactive: dose: 100.0 mg/kg/injection, schedule: Q04DX002 (ip), vehicle: saline 94 % of control | dose: 200.0 mg/kg/injection, schedule: Q04DX002 (ip), vehicle: saline 98 % of control

S=c1[nH]c(=S)c2[nH]cnc2[nH]1
inactive: dose: 50.0 mg/kg/injection, schedule: Q01DX001 (ip), vehicle: other 113 % of control | [8] 94 % of control | dose: 100.0 mg/kg/injection, schedule: Q01DX001 (ip), vehicle: other 101 % of control | [10] 96 % of control | dose: 200.0 mg/kg/injection, schedule: Q01DX001 (ip), vehicle: other 103 % of control | dose: 200.0 mg/kg/injection, schedule: Q01DX009 (ip), vehicle: other 97 % of control | dose: 400.0 mg/kg/injection, schedule: Q01DX001 (ip), vehicle: other 107 % of control | dose: 400.0 mg/kg/injection, schedule: Q01DX009 (ip), vehicle: other 102 % of control | dose: 600.0 mg/kg/injection, schedule: Q01DX001 (ip), vehicle: other 100 % of control | dose: 1200.0 mg/kg/injection, schedule: Q01DX001 (ip), vehicle: other 117 % of control

Cn1c(N)c(N=Nc2ccc(S(N)(=O)=O)cc2)c(=O)n(C)c1=O
inactive: [9] 94 % of control | [12] 102 % of control | [13] 96 % of control

c1ccc2ncc(-c3ccc4ccccc4n3)cc2c1
inactive: [14] 100 % of control | [9] 107 % of control | [2] 97 % of control and 116 % of control | dose: 200.0 mg/kg/injection, schedule: Q01DX001 (ip), vehicle: Klucel (hydroxypropylcellulose) (HPC) 94 % of control | [12] 96 % of control | [3] 95 % of control and 101 % of control | dose: 400.0 mg/kg/injection, schedule: Q01DX001 (ip), vehicle: Klucel (hydroxypropylcellulose) (HPC) 100 % of control | [13] 96 % of control | [4] 94 % of control and 100 % of control

CCSC1C(OC(C)=O)C(C(COC(C)=O)OC(C)=O)OC1n1cc(C)c(=O)[nH]c1=O (centres undefined)
inactive: dose: 100.0 mg/kg/injection, schedule: Q01DX005 (ip), vehicle: saline 98 % of control | dose: 200.0 mg/kg/injection, schedule: Q01DX005 (ip), vehicle: saline 100 % of control

CCOC1OCN(C)CC1(C)C (centres undefined)
inactive: dose: 50.0 mg/kg/injection, schedule: Q01DX009 (ip), vehicle: saline 93 % of control | [1] 109 % of control | dose: 100.0 mg/kg/injection, schedule: Q04DX003 (ip), vehicle: saline 101 % of control | dose: 132.0 mg/kg/injection, schedule: Q01DX009 (ip), vehicle: saline sonified 113 % of control | dose: 200.0 mg/kg/injection, schedule: Q01DX009 (ip), vehicle: saline sonified 118 % of control | dose: 200.0 mg/kg/injection, schedule: Q04DX003 (ip), vehicle: saline 97 % of control
